Results reported in paper PMC11161644, “An effective and rapidly degradable disinfectant from disinfection byproducts” (Nature Communications, 2024).
“And” between values parts separate entries of the source, which are not always exact repeats. Identical values can stand only once. Like-named read-outs stand apart in the source and are kept apart here.

Key:
[1] = test system: bacteriophage MS2 (ATCC 15597-B1); assay: Inactivation of bacteriophage MS2 (double-layer agar, contact time 5 min); format: cell-based; settings: for log reduction at 300 µg/mL: Escherichia phage MS2, ATCC15597, 5 min, dose 300 mg L-1, pH 7.2, contact time 5 min; for Dose for achieving 3-log inactivation of MS2 / MS2 inactivation rate constant k: pH 7.2, contact time 5 min
Description: The bacteriophage MS2 (ATCC 15597-B1) was propagated in the host E. coli (ATCC 15597) in Tryptone Soya broth at 37 °C for 16 h. The viruses were separated from the bacterial debris and purified by centrifuging the phage culture (4000×g, 10 min, 4 °C) and filtering the lysate with a 0.2 μm polyethersulfone sterile filter. The filtrate was then diluted in PBS (10 mM, pH 7.2) to an initial MS2 concentration of 10^9‒10^10 plaque-forming units […]. To initiate the disinfection experiments, a series of DBP doses were added to the MS2 suspension at room temperature (22 ± 1 °C). […] Briefly, serial 10-fold dilutions were conducted for the disinfected samples and the control sample without disinfection. Each dilution was mixed with the host E. coli in the soft agar and the mixture was immediately spread onto a Petri dish with Tryptone Soya agar. After the Petri dishes were incubated at 37 °C for 16 h, the plaque-forming units were counted. The disinfection experiments were performed in duplicate. All the materials for the disinfection experiments were autoclaved before use.

[2] = test system: C. albicans (ATCC 14053); assay: Inactivation of C. albicans (contact time 5 min); format: cell-based, Candida albicans; settings: for log reduction at 300 µg/mL: Candida albicans, ATCC14053, 5 min, dose 300 mg L-1, pH 7.2, contact time 5 min; for C. albicans inactivation rate constant k / Dose for achieving 3-log inactivation of C. albicans: pH 7.2, contact time 5 min
Description: The chemicals and reagents used are detailed in Supplementary Note 1. The bacteria E. coli (ATCC 25922) and S. aureus (ATCC 25923) were cultured aerobically in Luria-Bertani broth (Sigma-Aldrich) and Tryptone Soya broth (Oxoid), respectively, at 37 °C for 16 h. The fungus C. albicans (ATCC 14053) was aerobically cultured in Sabouraud Dextrose broth (Difco) at 37 °C for 24 h. The microorganism cells were harvested by centrifugation at 1200×g (10 min, 4 °C) and resuspended in phosphate-buffered saline (PBS, 10 mM, pH 7.2). The disinfection experiments were performed in PBS solutions (10 mM, pH 7.2) with an initial concentration of E. coli, S. aureus, or C. albicans of 10^6‒10^7 cells per milliliter. A contact time of 5 min was used in accordance with the recommended time range of 0.25–10 min by USEPA for surface disinfection. Preliminary tests were conducted to determine the appropriate range of DBP doses. The appropriate dose range was established when the lowest and highest doses could achieve <1-log and >3-log of microbial inactivation, respectively. Based on the preliminary results, a series of doses of DBPs were added to the cell suspensions at room temperature (22 ± 1 °C). After the contact time of 5 min, the microorganism cells were enumerated following a membrane filter method. Briefly, serial 10-fold dilutions were conducted for the disinfected samples and the control sample without disinfection. Each diluted suspension was subjected to filtration through 0.45-μm membrane, which was then placed on a petri dish. The Petri dishes containing E. coli, S. aureus, and C. albicans were incubated in m-FC medium (Becton Dickinson & Co) at 45 °C for 24 h, in Tryptone Soya broth at 37 °C for 24 h and in Sabouraud Dextrose broth at 37 °C for 24 h, respectively. After incubation, the colony-forming units within a statistically reasonable range (20–80) were counted.

[3] = physchem
Description: The solar photolysis experiments were conducted in a chamber equipped with eight simulated sunlight full-spectrum lamps (BlueMax 5900, Full Spectrum Solutions). The temperature in the chamber was maintained at 20 °C. The total intensity of simulated sunlight was determined using a digital photometer (DT-1010B, Shenzhen Golden Octopus, China). Quartz flasks were positioned in the chamber where the total intensity of simulated sunlight was 4.79 ± 0.04 mW cm^−2 for each quartz flask. […] A DBP was added at 10 mg L^−1 to 50 mL pretreated seawater (pH 8.2) in the quartz flasks and exposed to the simulated solar irradiation for 0‒96 h. Every 8 h, the quartz flasks were rotated in and out of the chamber, and the sample volume was determined and adjusted with ultrapure water to account for any water evaporation. During the solar irradiation experiments, the sample was adjusted to pH 6.2 and 7.2 or maintained at pH 8.2 by adding 4 mM phosphate buffer (pH 6.2, 7.2, and 8.2, respectively).
For the DBP samples with and without sunlight, aliquots were taken at a specific reaction time. The sample aliquots were analyzed using Agilent high-performance liquid chromatography (HPLC) equipped with a Poroshell 120 EC-C18 column (4.6 × 150 mm, 4 µm particle size, Agilent) and a UV detector. The mobile phase, consisting of water (pre-adjusted to pH 2 with phosphoric acid) and acetonitrile at 50/50 (v/v), was applied at a flow rate of 1.0 mL min^−1. PCMX, 2,4-dihalophenols and 5-halosalicylic acids were detected at the wavelength of 230 nm. 2,5-Dihalohydroquinones and 2,6-DCQ were detected at the wavelength of 280 nm. All the degradation experiments were conducted in duplicate.

[4] = test system: P. dumerilii embryos; assay: Developmental toxicity (EC50) of OH-DCQ and 2,6-DCQ to P. dumerilii embryos; format: in vivo, Platynereis dumerilii
Description: The third aliquot was subjected to the developmental toxicity assay with P. dumerilii embryos. The aliquot was dissolved in 10 mL of seawater and adjusted to pH 8.2. The embryos at 12-h postfertilization were exposed to different levels of OH-DCQ for 12 h. By 24-h postfertilization, normally and abnormally developed embryos were counted using an inverted stereomicroscope. Based on the percentage of normally developed embryos, an exposure−response curve was generated. The median effective concentration (EC50) was determined using SigmaPlot 12 software. The developmental toxicity of 2,6-DCQ was also evaluated for comparison. The toxicity bioassay was conducted in duplicate.

[5] = seawater pH 8.2, solar irradiation, 0 h
[6] = pH 7.2, MS2, read-out: Log (N/N0)
[7] = pH 7.2, C. albicans, read-out: Log (N/N0)
[8] = pretreated seawater under simulated solar irradiation, pH 8.2
[9] = seawater pH 8.2, solar irradiation, 0 min

Oc1ccc(Cl)cc1Cl [2,4-DCPh, 2,4-Dichlorophenol]
log reduction at 300 µg/mL ([1]; pH 7.2, read-out: Log (N/N0), MS2): 0.549
log reduction at 300 µg/mL ([2]; pH 7.2, read-out: Log (N/N0), C. albicans): 0.236
half-life at 10 mg L−1 ([3]; buffer, pH 8.2): 45 h
Ln (C/C0) [3, 5]: 0

Oc1ccc(I)cc1I [2,4-DIPh, 2,4-diiodophenol]
log reduction at 300 µg/mL [1, 6]: 2.17
log reduction at 300 µg/mL [2, 7]: 5.49
half-life at 10 mg L−1 ([3]; buffer, pH 8.2): 83 h
Ln (C/C0) [3, 5]: 0

Oc1cc(Br)c(O)cc1Br [2,5-DBHQ, 2,5-dibromohydroquinone]
half-life at 10 mg L−1 [3, 8]: 0.16 h
Ln (C/C0) [3, 9]: 0

Oc1cc(I)c(O)cc1I [2,5-DIHQ, 2,5-diiodohydroquinone]
log reduction at 300 µg/mL [1, 6]: 1.11
log reduction at 300 µg/mL [2, 7]: 0.393
half-life at 10 mg L−1 [3, 8]: 0.16 h
Ln (C/C0) [3, 9]: 0

O=C1C=C(Cl)C(=O)C(Cl)=C1 [2,6-DCQ, 2,6-dichlorobenzoquinone]
Dose for achieving 3-log inactivation of MS2 [1]: 46.1 mg L−1
MS2 inactivation rate constant k [1]: 14200 µL/min/mg
C. albicans inactivation rate constant k [2]: 31300 µL/min/mg
Dose for achieving 3-log inactivation of C. albicans [2]: 35.4 mg L−1
half-life at 10 mg L−1 ([3]; buffer, pH 6.2): 4.13 h
half-life at 10 mg L−1 ([3]; buffer, pH 7.2): 3.2 h
half-life at 10 mg L−1 ([3]; buffer, pH 8.2): 1.33 h
Degradation rate constant k ([3]; pH 6.2, with solar irradiation): 0.168 h⁻¹
Ln (C/C0) ([3]; pH 6.2 with solar irradiation, 0 h): 0
Degradation rate constant k ([3]; pH 7.2, with solar irradiation): 0.217 h⁻¹
Ln (C/C0) ([3]; pH 7.2 with solar irradiation, 0 h): 0
Ln (C/C0) [3, 5]: 0
Degradation rate constant k ([3]; seawater pH 8.2, with solar irradiation): 0.520 h‒1
Normal development ([4]; 2,6-DCQ concentration 0.2 mg L-1): 80.7017% and 79.2079%
Normal development ([4]; 2,6-DCQ concentration 0.3 mg L-1): 76.7442% and 82.4428%
Normal development ([4]; 2,6-DCQ concentration 0.4 mg L-1): 80% and 80.822%
Normal development ([4]; 2,6-DCQ concentration 0.5 mg L-1): 62.0155% and 62.3077%
Normal development ([4]; 2,6-DCQ concentration 0.6 mg L-1): 42.1875% and 37.2727%
Normal development ([4]; 2,6-DCQ concentration 0.75 mg L-1): 16.2963% and 20.7921%
Normal development ([4]; 2,6-DCQ concentration 1 mg L-1): 7.407% and 6.667%
Developmental toxicity relative to OH-DCQ (times higher) ([4]; P. dumerilii embryos): 149 times

O=C1C=C(Cl)C(=O)C(Cl)=C1O [OH-DCQ, 3-hydroxyl-2,6-dichloro-1,4-benzoquinone]
Normal development ([4]; OH-DCQ concentration 15 mg L-1): 92.9293% and 86.7257%
Normal development ([4]; OH-DCQ concentration 25 mg L-1): 83.1776% and 81.579%
Normal development ([4]; OH-DCQ concentration 35 mg L-1): 84.1584% and 85.7144%
Normal development ([4]; OH-DCQ concentration 40 mg L-1): 83.0189% and 85.5855%
Normal development ([4]; OH-DCQ concentration 48 mg L-1): 79.8164% and 77.4194%
Normal development ([4]; OH-DCQ concentration 65 mg L-1): 67.0813% and 64.9575%
Normal development ([4]; OH-DCQ concentration 85 mg L-1): 48.8761% and 42.0329%

Cc1cc(O)cc(C)c1Cl [PCMX, para-chloro-meta-xylenol, reference compound]
log reduction at 300 µg/mL [1, 6]: 1.03
Dose for achieving 3-log inactivation of MS2 [1]: 1010 mg L−1
MS2 inactivation rate constant k [1]: 600 µL/min/mg
log reduction at 300 µg/mL [2, 7]: 3.49
C. albicans inactivation rate constant k [2]: 3670 µL/min/mg
Dose for achieving 3-log inactivation of C. albicans [2]: 320 mg L−1
half-life at 10 mg L−1 [3, 8]: 257 h
Ln (C/C0) [3, 5]: 0
